Melting point data for 85 molecules are collected here from a melting point compilation (Tetko et al.; mined from patent text by program, amines drawn as free bases though some values may be those of a salt).

The melting point is the temperature, or range, at which the solid turns liquid.

As to `CCOC1=NC(OC)=NS(=O)(=O)N1C(C)C`, the melting point fell in the range of 81 to 85 °C.

The molecule `CC(C)c1ccc(N(Cc2ccc(N(C)C)cc2)C(=O)C2CCS(=O)(=O)c3ccccc32)cc1` (stereo not given) came in with a melting point of 185 to 187 °C.

As for `CO[C@@H](Cc1ccc(OCCc2nc(-c3ccc(-c4ccccc4)cc3)oc2C)c2ccccc12)C(=O)O`, the melting point lay within 156 to 159 °C. For `CN(C(=O)N(C)n1cnc2ccccc2c1=O)c1ccc(Cl)cc1` the value was 97 to 120 °C; for `COc1ccc(-c2noc(C(F)F)c2-c2ccc(S(N)(=O)=O)cc2)cc1F`, 188 to 190 °C. `Clc1cc(-c2cnc3c(c2)N(Cc2c(Cl)cccc2Cl)CCN3)ccn1`: the melting point was determined as 194 °C. For `CCON=C(C(C)=NOCc1ccccc1C(=NOC)C(=O)NC)c1ccc(Oc2ccc(Cl)cc2)cc1` the value was 126 to 129 °C; for `CC1=CN(c2ccc(Cl)c(Cl)c2)SC1`, 160 to 161 °C. Consider `C#Cc1c(Cl)cccc1Cl`, for which the melting point is 97 to 98 °C.

For `CC(C)(CCn1cnc(-c2ccccc2)c1)NCC(O)c1ccc(O)c(NS(C)(=O)=O)c1` (stereo not given), the melting point fell in the range of 133 to 136 °C. As to `COc1cnc(OC(c2ccccc2)(c2ccccc2)c2ccccc2)cc1OC1CCCC1`, the melting point is 132 to 133 °C. Consider `COc1ccc(C(=O)Nc2ccc(C(C)(C)CNC(=O)c3cnc4[nH]ccc4c3)cc2)cc1OC`, for which the melting point was in the range of 256 to 258 °C.

In turn, `CC1(O)c2ccc(Cl)cc2CC1(F)S(C)(=O)=O` (stereo not given) came in with a melting point of 148 °C. For `CCN(CC)CC(=O)OC1CC2(C)C(C(C)=O)CCC2C2CCC3CC(O)C(SC#N)CC3(C)C12` (stereo not given) the value was 173 to 180 °C; for `Brc1ccc(N(Cc2ccccc2)c2ccccc2)cc1`, 97 to 98 °C; for `CC1C(=O)N(Cc2ccccc2)C(=S)N1c1ccc(Oc2ccccc2)cc1` (stereo not given), 62 °C. In turn, `CC(c1oc2ccccc2c(=O)c1-c1ccccc1)n1nc(-c2cn[nH]c2)c2c(N)ncnc21` (stereo not given) gave a melting point of 214 to 217 °C. Consider `O=C(c1ccc(O)cc1)c1ccon1`, for which the melting point was in the range of 125 to 127 °C.

Take `CC(O)CNc1c(F)cc2c(=O)c(C(=O)O)cn(-c3cc(N)c(F)cc3F)c2c1Cl` (stereo not given): the melting point was 225 to 226 °C. As for `COc1cc(Nc2nccc(-c3sc(-c4cccnc4)nc3C)n2)cc(OC)c1OC`, the figure is 210 to 211 °C; as for `CNC(=O)c1cccc(Cl)c1Nc1nc(Nc2ccc3c(c2)CCCC(=O)N3C)ncc1Cl`, 145 to 160 °C; as for `COc1ccc(-c2nc(Sc3ccccc3F)[nH]c2-c2ccc(OC)cc2)cc1`, 195 °C.

In turn, `NS(=O)(=O)c1cc(CO)cc(N2CCCC2)c1Oc1ccccc1` returned a melting point of 155 °C. As for `COc1ccc(C2CC(OC(C)=O)CCC2[N+](=O)[O-])cc1OC` (stereo not given), the figure is 108 to 110 °C; as for `COc1ccc(C(=O)Cc2c(Cl)cncc2Cl)c2c1OC(C)(C)C2`, 127 to 131 °C.

In turn, `CC(C)Cc1nc2ccc(Br)cc2c(-c2ccccc2)c1CN` registered a melting point of 129 to 130 °C. `CN(C)N=C(O)c1cc(C(=N)O)c(C(=O)O)cc1C(=O)O` displayed a melting point of 293 to 295 °C. For the molecule `CCOc1cc(-c2cc(C(F)(F)F)n3ncc(-c4nc(-c5ccc(N)nc5)no4)c3n2)ccc1C(F)(F)F`, the melting point came to 263 °C. For `N#Cc1ccc(S(=O)(=O)N2CCCC2c2ccc(F)cc2)cc1` (racemic) the value was 147 °C. Consider `NC(=O)C1CN(Cc2ccccc2)CC1O` (stereo not given), for which the melting point turned out to be 128 °C. As for `CCOC(=O)C=Cc1ccc(F)cc1F`, the figure is 40 to 40.5 °C; as for `Cc1c(CNCC(C)(C)C)n(C)c2ccc(NC(=O)c3ccc(OCC4CC4)cc3)cc12`, 169 to 170 °C.

In turn, `Cc1c(C)c2c(c(C)c1NC(=O)CC(C)(C)C)C(c1ccc(C=O)cc1)CO2` (stereo not given) returned a melting point of 195 to 196 °C. As for `COC(=O)[C@@H]1C[C@H](OC(=O)C(C)C)C(=O)[C@H]2[C@@]1(C)CC[C@H]1C(=O)O[C@H](c3ccoc3)C[C@]21C`, the figure is 155 to 157 °C. The molecule `N#Cc1ccc(N2CCC(N3CCCC3)CC2)cc1` registered a melting point of 88 to 89 °C. For `CCOC(=O)Nc1ccc(C(=O)c2ccccc2)cc1COC1CCCCO1` (stereo not given) the value was 116 °C. As for `O=C(O)c1cc([N+](=O)[O-])ccc1-c1ccc([N+](=O)[O-])cc1C(=O)O`, the figure is 255 to 258 °C.

In turn, `c1cc(OCCCc2nnn[nH]2)cc(OCc2ccc3ccccc3n2)c1` registered a melting point of 147 to 149 °C.

Molecule `O=C1c2cccc(Br)c2C(=O)N1CCCCCn1cncn1` gave a melting point of 102 to 104 °C. As for `Cc1cc(Nc2ccnc(Nc3ccc(S(=O)(=O)N(CCN)C4CCNCC4)cc3)n2)ccc1F`, the figure is 134 to 135 °C. For `CCN1C(=Cc2ccc([N+](=O)[O-])cc2C#N)C=Cc2ccccc21` the value was 183 to 184 °C; for `COc1ccc(Cc2cc(S)ccc2OC)cc1`, 78 °C; for `O=C(O)[C@@H](Cc1ccccc1)Oc1c(Br)cc(-c2c3ccccc3c(Br)c3sc4ccccc4c23)cc1Br`, 140 to 142 °C. As for `NS(=O)(=O)c1ccc(/C(=C(\CCO)C(=O)O)c2ccc(F)cc2)cc1`, the figure is 160 to 162 °C; as for `Cc1c(Br)c2c(c(C)c1NC(=O)CC(C)(C)C)CC(C)(C)O2`, 205 to 206 °C; as for `CN1C(=O)CC[C@]2(C)c3ccc(-c4ccc(F)c(Cl)c4)cc3CC[C@@H]12`, 114 to 116 °C. `O=C1CCCc2c1[nH]c1ccc(F)cc21` came in with a melting point of 131 °C. As for `c1cnn(-c2ccnc(-n3cccn3)n2)c1`, the figure is 152 to 153 °C; as for `CCOCc1nc2c(N)nc3cc(-c4cncc(CO)c4)ccc3c2n1CC(C)(C)O`, 188 to 190 °C. The molecule `COC(=O)c1cccc(/C=C/c2cccc(Br)c2)c1` registered a melting point of 79 to 84 °C.

As for `Nc1ncnc2sc(Cc3ccccc3)c(-c3ccc(NS(=O)(=O)c4ccccc4)cc3)c12`, the melting point lay within 100 to 105 °C. As for `CCCc1nc(N)nc(N)c1N1CCNCC1`, the figure is 175 to 176 °C. In turn, `CCCCCCCCC(SCCCCCC)C(=O)Nc1c(OC)ccc2ncccc12` (stereo not given) yielded a melting point of 88 to 89 °C.

For `CC(C)N(C)C(=O)COCCCCCCCC[C@H]1C[C@]2(C)[C@@H](O)CC[C@H]2[C@@H]2CCc3cc(O)ccc3[C@@H]12`, the melting point turned out to be 126 °C. With `FC(F)(F)CN1CCC(n2ccc3ccccc32)CC1`, the melting point is 79 to 81 °C.

On to `Nc1nc(S(=O)(=O)Cl)nn1C(=O)Oc1ccccc1`, for which the melting point was 164 °C. As for `Cc1cc(CN=C(O)c2cc(C(O)=NCc3cc(C)c(O)c(C(C)(C)C)c3)c(C(=O)O)cc2C(=O)O)cc(C(C)(C)C)c1O`, the melting point fell in the range of 267 to 269 °C. As for `Cc1cc(-n2ccnc2)c2cccc(OCc3c(Cl)ccc(S(=O)(=O)N4CCC[C@H]4C(=O)N(C)CCCN(C)CCCCO)c3Cl)c2n1`, the figure is 82 °C. For `Cc1sc(C(=O)NCc2ccc3c(c2)OCO3)cc1[N+](=O)[O-]` the value was 181 to 183 °C; for `CCOc1cc2c(Cl)c(C#N)cnc2cc1F`, 165 to 166 °C; for `CCOC(=O)c1cn(C2CC2)c2cc(-c3cc(C(F)(F)F)nc(C(F)(F)F)c3)c(F)cc2c1=O`, 239 to 241 °C.

For `COC(=O)C(=O)c1ccc(OCCOc2ccc3ccncc3c2)cc1`, the melting point was in the range of 144 to 145 °C. As for `CCOC(=O)C(Cc1ccc(OCCn2c(=O)sc3cc(C(=O)C4CC4)ccc32)cc1)OCC(F)(F)F` (stereo not given), the figure is 113 to 115 °C. As for `CN(C(=O)NCCCl)c1ccc(C(O)(C(F)(F)F)C(F)(F)F)cc1`, the figure is 120 to 121 °C; as for `CCCCCCCCCCCCCCCCN(C(=O)C(F)(F)F)c1ccc(C(=O)Nc2ccc(C(=O)OCC)cc2)cc1`, 91 to 93 °C; as for `COc1c(N2CC(C)C(N)C(C)(C)C2)c(F)c(N)c2c(=O)c(C(=O)O)cn(C3CC3)c12` (stereo not given), 248 to 252 °C. As for `COc1ccc(C(=O)n2c(C)c(Cc3cc(=O)n(-c4cccc(C(F)(F)F)c4)[nH]3)c3cc(OC)ccc32)cc1`, the figure is 91 to 94 °C; as for `N#CCCSCc1nccc(N)n1`, 106 to 109 °C; as for `CC1=C(c2cccc(Cl)c2)n2ncc(C#N)c2N(C(=O)CCl)C1`, 132 to 135 °C. In turn, `CCCCCCCCCCCCCCCCC#CCO` displayed a melting point of 60 °C. `Cc1cc(C(O)(C(F)(F)Cl)C(F)(F)Cl)cc(C)c1O`: the melting point is 90.5 to 92 °C. In turn, `COc1ccc(C(O)(Cc2ccncc2)c2cccs2)cc1OC1CCCC1` (stereo not given) came in with a melting point of 57 to 67 °C.

`Fc1ccc2[nH]cc(C3=CCN(CC4CCc5ccc6ncccc6c5O4)CC3)c2c1` (stereo not given) displayed a melting point of 148 °C. In turn, `O=c1[nH]c2cc(-c3ncc[nH]3)c([N+](=O)[O-])cc2[nH]c1=O` had a melting point of over 300 °C. As for `CC(=O)NC[C@H]1CN(c2ccc(C(=O)c3cnc4c5ccccc5ccn34)cc2)C(=O)O1`, the figure is 239 to 240 °C. Molecule `COc1ccc(-n2c(Br)ccc2-c2ccc(S(N)(=O)=O)cc2)cc1` registered a melting point of 121 to 123 °C. `Fc1ccc(CSc2nnc(-c3ccc4c(c3)CCO4)o2)cc1C(F)(F)F`: the melting point lay within 94 to 95 °C.

For the molecule `CC1(C)OC(=O)Nc2ccc(-c3ccc(CC#N)c(F)c3)cc21`, the melting point was in the range of 253 to 256 °C. As for `O=S(=O)(NCCC(F)=C(F)F)c1ccc(C(F)(F)F)cc1`, the figure is 68 to 70 °C; as for `CCOC(=O)CCc1cn(Cc2ccc(OCc3nc(-c4ccccc4)oc3C)cc2)nc1-c1ccc(F)cc1`, 93 to 94 °C. As for `O=S(=O)(/C=C/c1ccccc1)Nc1ccc(Cl)cc1`, the figure is 107 to 109 °C. As for `CCOC(=O)Cc1ccc(-c2cn3ccccc3n2)cc1`, the figure is 92 to 93 °C. `Cc1nc2ccc(CN(CCO)c3ccc(C(=O)NCc4cccc(C#N)c4)cc3)cc2c(=O)[nH]1` came in with a melting point of 110 to 112 °C. For `CC1CC2C(C(O)CC3(C)C2CCC3(O)C(=O)COCc2ccccc2[N+](=O)[O-])C2(C)C=CC(=O)C=C12` (stereo not given) the value was 116 to 119 °C; for `CC(=O)c1c(C)sc(-c2ccncc2)c1C`, 80 to 81 °C.
